Three compounds from ChEMBL document CHEMBL1932988, “Synthesis, antimicrobial, anticancer evaluation and QSAR studies of 6-methyl-4-[1-(2-substituted-phenylamino-acetyl)-1H-indol-3-yl]-2-oxo/thioxo-1,2,3,4-tetrahydropyrimidine-5-carboxylic acid ethyl esters” (Eur J Med Chem, 2012) can be followed below.

≈ marks a conversion by molar mass, not a printed value.

For one data set, the system named is Candida albicans. Kind of data set: Antifungal activity against Candida albicans MTCC 227 after 48 hrs by tube dilution method. It counts as functional.
Conditions: not given
For `CCOC(=O)C1=C(C)NC(=S)NC1c1cn(C(=O)CNc2ccccc2)c2ccccc12` (configuration not stated), the “-logMIC” value turned out to be 1.55.

Consider `CCOC(=O)C1=C(C)NC(=S)NC1c1cn(C(=O)CNc2ccccc2Cl)c2ccccc12` (configuration not stated), for which the “-logMIC” value is on record as 1.59.

For `CCOC(=O)C1=C(C)NC(=S)NC1c1cn(C(=O)CNc2ccc([N+](=O)[O-])c(Cl)c2)c2ccccc12` (configuration not stated), the “-logMIC” value was 1.63.

For the next data set, the system named is Escherichia coli. Kind of data set: Antibacterial activity against Escherichia coli MTCC 1652 after 24 hrs by tube dilution method hrs followed by subculturing. It counts as functional.
Conditions: not given
Regarding `CCOC(=O)C1=C(C)NC(=S)NC1c1cn(C(=O)CNc2ccccc2)c2ccccc12` (configuration not stated), the MBC was greater than 0.11 uM/ml.

In turn, `CCOC(=O)C1=C(C)NC(=S)NC1c1cn(C(=O)CNc2ccccc2Cl)c2ccccc12` (configuration not stated) came in with an MBC greater than 0.1 uM/ml.

With `CCOC(=O)C1=C(C)NC(=S)NC1c1cn(C(=O)CNc2ccc([N+](=O)[O-])c(Cl)c2)c2ccccc12` (configuration not stated), the MBC was greater than 0.09 uM/ml.

Another data set deals with MCF7. Description: cells. As to conditions: Homo sapiens, MCF7, 72 h.
Description: Cytotoxicity against human MCF7 cells after 72 hrs by MTT assay
For `CCOC(=O)C1=C(C)NC(=S)NC1c1cn(C(=O)CNc2ccccc2)c2ccccc12` (configuration not stated), half-maximal inhibition (IC50) required 52 µg/mL (≈ 116 µM).

For the compound `CCOC(=O)C1=C(C)NC(=S)NC1c1cn(C(=O)CNc2ccc([N+](=O)[O-])c(Cl)c2)c2ccccc12` (configuration not stated), half-maximal inhibition (IC50) required 50 µg/mL (≈ 94.7 µM).

The subject of a further data set is Candida albicans. Kind of data set: Ratio of MIC to MFC for Candida albicans MTCC 227.
Conditions: not given
It counts as functional.
`CCOC(=O)C1=C(C)NC(=S)NC1c1cn(C(=O)CNc2ccccc2)c2ccccc12` (configuration not stated): the Ratio is 3.

Regarding `CCOC(=O)C1=C(C)NC(=S)NC1c1cn(C(=O)CNc2ccccc2Cl)c2ccccc12` (configuration not stated), the Ratio is on record as 3.

In the case of `CCOC(=O)C1=C(C)NC(=S)NC1c1cn(C(=O)CNc2ccc([N+](=O)[O-])c(Cl)c2)c2ccccc12` (configuration not stated), the Ratio is recorded as 3.

The next data set deals with Bacillus subtilis. Description: Ratio of MIC to MBC for Bacillus subtilis MTCC 2063. It counts as functional.
Conditions: not given
Regarding `CCOC(=O)C1=C(C)NC(=S)NC1c1cn(C(=O)CNc2ccccc2)c2ccccc12` (configuration not stated), the Ratio is recorded as 3.

In the case of `CCOC(=O)C1=C(C)NC(=S)NC1c1cn(C(=O)CNc2ccccc2Cl)c2ccccc12` (configuration not stated), the Ratio was found to be 3.

`CCOC(=O)C1=C(C)NC(=S)NC1c1cn(C(=O)CNc2ccc([N+](=O)[O-])c(Cl)c2)c2ccccc12` (configuration not stated): the Ratio turned out to be 3.

The subject of the next data set is Bacillus subtilis. Description: Antibacterial activity against Bacillus subtilis MTCC 2063 after 24 hrs by tube dilution method hrs followed by subculturing. It counts as functional.
Conditions: not given
On to `CCOC(=O)C1=C(C)NC(=S)NC1c1cn(C(=O)CNc2ccccc2)c2ccccc12` (configuration not stated), for which the MBC is greater than 0.11 uM/ml.

In the case of `CCOC(=O)C1=C(C)NC(=S)NC1c1cn(C(=O)CNc2ccccc2Cl)c2ccccc12` (configuration not stated), the MBC is greater than 0.1 uM/ml.

`CCOC(=O)C1=C(C)NC(=S)NC1c1cn(C(=O)CNc2ccc([N+](=O)[O-])c(Cl)c2)c2ccccc12` (configuration not stated): the MBC is given as greater than 0.09 uM/ml.

In another data set the test system is Escherichia coli. Kind of data set: Ratio of MIC to MBC for Escherichia coli MTCC 1652. The data set is classed as functional.
Conditions: not given
Consider `CCOC(=O)C1=C(C)NC(=S)NC1c1cn(C(=O)CNc2ccccc2)c2ccccc12` (configuration not stated), for which the Ratio is 3.

In the case of `CCOC(=O)C1=C(C)NC(=S)NC1c1cn(C(=O)CNc2ccccc2Cl)c2ccccc12` (configuration not stated), the Ratio is listed as 3.

In the case of `CCOC(=O)C1=C(C)NC(=S)NC1c1cn(C(=O)CNc2ccc([N+](=O)[O-])c(Cl)c2)c2ccccc12` (configuration not stated), the Ratio stood at 3.

The next data set deals with Aspergillus niger. Description: Ratio of MIC to MFC for Aspergillus niger MTCC 8189. It counts as functional.
Conditions: not given
For the compound `CCOC(=O)C1=C(C)NC(=S)NC1c1cn(C(=O)CNc2ccccc2)c2ccccc12` (configuration not stated), the Ratio turned out to be 3.

`CCOC(=O)C1=C(C)NC(=S)NC1c1cn(C(=O)CNc2ccccc2Cl)c2ccccc12` (configuration not stated): the Ratio is 3.

Take `CCOC(=O)C1=C(C)NC(=S)NC1c1cn(C(=O)CNc2ccc([N+](=O)[O-])c(Cl)c2)c2ccccc12` (configuration not stated): the Ratio turned out to be 3.

The subject of a further data set is Aspergillus niger. Kind of data set: Antifungal activity against Aspergillus niger MTCC 8189 after 7 days by tube dilution method. It counts as functional.
Conditions: not given
Take `CCOC(=O)C1=C(C)NC(=S)NC1c1cn(C(=O)CNc2ccccc2)c2ccccc12` (configuration not stated): the “-logMIC” value is reported as 1.55.

In the case of `CCOC(=O)C1=C(C)NC(=S)NC1c1cn(C(=O)CNc2ccccc2Cl)c2ccccc12` (configuration not stated), the “-logMIC” value was 1.59.

Regarding `CCOC(=O)C1=C(C)NC(=S)NC1c1cn(C(=O)CNc2ccc([N+](=O)[O-])c(Cl)c2)c2ccccc12` (configuration not stated), the “-logMIC” value worked out at 1.63.

Another data set has as its system Staphylococcus aureus. Description: Antibacterial activity against Staphylococcus aureus MTCC 2901 after 24 hrs followed by subculturing. The data set is classed as functional.
Conditions: not given
`CCOC(=O)C1=C(C)NC(=S)NC1c1cn(C(=O)CNc2ccccc2)c2ccccc12` (configuration not stated) registered an MBC greater than 0.11 uM/ml.

For `CCOC(=O)C1=C(C)NC(=S)NC1c1cn(C(=O)CNc2ccccc2Cl)c2ccccc12` (configuration not stated), the MBC is given as greater than 0.1 uM/ml.

Compound `CCOC(=O)C1=C(C)NC(=S)NC1c1cn(C(=O)CNc2ccc([N+](=O)[O-])c(Cl)c2)c2ccccc12` (configuration not stated) displayed an MBC greater than 0.09 uM/ml.

The test system of another data set is Escherichia coli. Description: Antibacterial activity against Escherichia coli MTCC 1652 after 24 hrs by tube dilution method. It counts as functional.
Conditions: not given
Regarding `CCOC(=O)C1=C(C)NC(=S)NC1c1cn(C(=O)CNc2ccccc2)c2ccccc12` (configuration not stated), the “-logMIC” value was 1.55.

`CCOC(=O)C1=C(C)NC(=S)NC1c1cn(C(=O)CNc2ccccc2Cl)c2ccccc12` (configuration not stated): the “-logMIC” value was determined as 1.59.

Take `CCOC(=O)C1=C(C)NC(=S)NC1c1cn(C(=O)CNc2ccc([N+](=O)[O-])c(Cl)c2)c2ccccc12` (configuration not stated): the “-logMIC” value was determined as 1.63.

Another data set concerns Staphylococcus aureus. Description: Ratio of MIC to MBC for Staphylococcus aureus MTCC 2901. It counts as functional.
Conditions: not given
On to `CCOC(=O)C1=C(C)NC(=S)NC1c1cn(C(=O)CNc2ccccc2)c2ccccc12` (configuration not stated), for which the Ratio is 3.

For `CCOC(=O)C1=C(C)NC(=S)NC1c1cn(C(=O)CNc2ccccc2Cl)c2ccccc12` (configuration not stated), the Ratio is on record as 3.

Turning to `CCOC(=O)C1=C(C)NC(=S)NC1c1cn(C(=O)CNc2ccc([N+](=O)[O-])c(Cl)c2)c2ccccc12` (configuration not stated), the Ratio was 3.

Tested on in another data set: not listed separately
Description: Partition coefficient, log P of the compound. It counts as physicochemical. As to conditions: octanol/water.
With `CCOC(=O)C1=C(C)NC(=S)NC1c1cn(C(=O)CNc2ccccc2)c2ccccc12` (configuration not stated), the logP (commonly a log measure of how a compound divides between an organic and an aqueous phase) was 2.92.

For the compound `CCOC(=O)C1=C(C)NC(=S)NC1c1cn(C(=O)CNc2ccccc2Cl)c2ccccc12` (configuration not stated), the logP is 3.44.

`CCOC(=O)C1=C(C)NC(=S)NC1c1cn(C(=O)CNc2ccc([N+](=O)[O-])c(Cl)c2)c2ccccc12` (configuration not stated) yielded a logP of 3.4.

The next data set has as its system HCT-116. Description: cells. As to conditions: Homo sapiens, HCT-116, 72 h.
Regarding `CCOC(=O)C1=C(C)NC(=S)NC1c1cn(C(=O)CNc2ccccc2)c2ccccc12` (configuration not stated), the IC50 – broadly, the midpoint of a concentration-inhibition curve – worked out at 450 µg/mL (≈ 1000 µM).

Take `CCOC(=O)C1=C(C)NC(=S)NC1c1cn(C(=O)CNc2ccc([N+](=O)[O-])c(Cl)c2)c2ccccc12` (configuration not stated): the IC50 came to 29 µg/mL (≈ 54.9 µM).

In another data set the test system is Bacillus subtilis. Description: Antibacterial activity against Bacillus subtilis MTCC 2063 after 24 hrs by tube dilution method.
Conditions: not given
The data set is classed as functional.
For `CCOC(=O)C1=C(C)NC(=S)NC1c1cn(C(=O)CNc2ccccc2)c2ccccc12` (configuration not stated), the “-logMIC” value is given as 1.25.

With `CCOC(=O)C1=C(C)NC(=S)NC1c1cn(C(=O)CNc2ccccc2Cl)c2ccccc12` (configuration not stated), the “-logMIC” value was 1.29.

Consider `CCOC(=O)C1=C(C)NC(=S)NC1c1cn(C(=O)CNc2ccc([N+](=O)[O-])c(Cl)c2)c2ccccc12` (configuration not stated), for which the “-logMIC” value is listed as 1.32.

The subject of the next data set is Staphylococcus aureus. Description: Antibacterial activity against Staphylococcus aureus MTCC 2901 after 24 hrs by tube dilution method. The data set is classed as functional.
Conditions: not given
For `CCOC(=O)C1=C(C)NC(=S)NC1c1cn(C(=O)CNc2ccccc2)c2ccccc12` (configuration not stated), the “-logMIC” value is reported as 1.55.

`CCOC(=O)C1=C(C)NC(=S)NC1c1cn(C(=O)CNc2ccccc2Cl)c2ccccc12` (configuration not stated): the “-logMIC” value is 1.29.

Consider `CCOC(=O)C1=C(C)NC(=S)NC1c1cn(C(=O)CNc2ccc([N+](=O)[O-])c(Cl)c2)c2ccccc12` (configuration not stated), for which the “-logMIC” value is given as 1.63.

A further data set concerns Candida albicans. Kind of data set: Antifungal activity against Candida albicans MTCC 227 after 48 hrs by tube dilution method hrs followed by subculturing. The data set is classed as functional.
Conditions: not given
In turn, `CCOC(=O)C1=C(C)NC(=S)NC1c1cn(C(=O)CNc2ccccc2)c2ccccc12` (configuration not stated) displayed an MFC greater than 0.11 uM/ml.

`CCOC(=O)C1=C(C)NC(=S)NC1c1cn(C(=O)CNc2ccccc2Cl)c2ccccc12` (configuration not stated) showed an MFC greater than 0.1 uM/ml.

`CCOC(=O)C1=C(C)NC(=S)NC1c1cn(C(=O)CNc2ccc([N+](=O)[O-])c(Cl)c2)c2ccccc12` (configuration not stated): the MFC is given as greater than 0.09 uM/ml.

The subject of another data set is Aspergillus niger. Description: Antifungal activity against Aspergillus niger MTCC 8189 after 7 days by tube dilution method hrs followed by subculturing. The data set is classed as functional.
Conditions: not given
Take `CCOC(=O)C1=C(C)NC(=S)NC1c1cn(C(=O)CNc2ccccc2)c2ccccc12` (configuration not stated): the MFC is recorded as greater than 0.11 uM/ml.

`CCOC(=O)C1=C(C)NC(=S)NC1c1cn(C(=O)CNc2ccccc2Cl)c2ccccc12` (configuration not stated): the MFC is listed as greater than 0.1 uM/ml.

The compound `CCOC(=O)C1=C(C)NC(=S)NC1c1cn(C(=O)CNc2ccc([N+](=O)[O-])c(Cl)c2)c2ccccc12` (configuration not stated) showed an MFC greater than 0.09 uM/ml.
